{"source": "patent US20110239322A1", "about": "“IN VITRO FLOWERING/SEED SET LEADING TO PARTIAL OR COMPLETE MALE STERILITY IN GRASSES” (THE PENN STATE RESEARCH FOUNDATION, priority 2010, published 2011)", "system": "shoot explant", "assay": "in vitro flowering on flowering medium (MS medium with growth regulators)", "set-up": "species or system grasses", "method": "In a preferred embodiment, seeds are washed in running tap water with a drop of soap for 5 mins and sterilized with 95% ethyl alcohol for 2 min followed by a 15 minute treatment with 10% bleach and washed three times for 5 min intervals with sterile distilled water. Ten seeds are germinated in each petriplate with MS medium with […]. After germination on MS 2,4-D, for a period of time, such as 3-7 days in the dark at 24±2° C. The flowering medium preferably comprises a substituted phenylurea cytokinin analog, such as TDZ and a cytokinin such as BAP.\nCultures are incubated at 24±2° C. under a 16/8-hour […] photoperiod provided by cool-white fluorescent lights at a quantum flux density of 30 μmol s^−1 m^−2. Following a passage of time, typically within 2 weeks, callus induction occurs, having taken the first internode of the germinated seed (on MS 4 mg/L 2,4-D medium). After about two weeks, the callus is transferred to regeneration medium, to allow for shoot induction (MS, 0.5 mg/L BAP, 0.1 mg/L 2,4-D, 38 mg/L CuSO4). During this time (shoot regeneration), cultures are incubated with necessary dark photoperiodic conditions to promote growth and to mimic natural growing conditions. Additionally, over time it may be necessary to subculture the explants with fresh MS, BAP, 2,4-D, CuSO4. […]"}
{"smiles": "O=C(Nc1ccccc1)Nc1cnns1", "note": "[TDZ, 1-phenyl-3-(1,2,3-thiadiazol-5-yl)urea]", "values": [{"measurement": "flower production on shoot explant", "setting": "TDZ 2.0 mg/L combined with BAP 1.0 mg/L in flowering medium", "result": "flowers are produced directly on a shoot explant"}, {"measurement": "flower production on shoots developed from callus", "setting": "TDZ 1.0-2.0 mg/L without BAP", "result": "produces flowers on shoots developed from callus"}]}
